Test results: patent US10456405B2, “Nitric oxide-releasing prodrug molecule of substituted quinazolines” (ZHEJIANG HUAHAI PHARMACEUTICAL CO., LTD, priority 2015, dated 2019)

Experiments:
[1] = Release of HNO (headspace gas chromatography of nitrous oxide); conditions: PBS pH 7.4, 37° C., argon, 90 min
Description: Experiment 2. Experimental study on the tested compounds for releasing HNO HNO rapidly dimerizes and dehydrates to produce nitrous oxide in aqueous solution. In the experiment of detecting HNO, gas chromatographic headspace analysis is generally used to determine the amount of the released nitrous oxide, thereby indirectly detect the level of releasing HNO of the compound.
Experimental procedure: Each of the tested compounds was prepared to 20 mg/mL of mother liquor with DMF. Prior to the start of the experiment, 50 μL of drug mother liquor was placed into a 20 mL headspace sample vial. The tested compound was diluted by adding 5 mL of PBS buffer with pH 7.4. The temperature of the resulting sample was kept at 37° C. under argon gas for 90 min. Then the top gas was extracted for gas chromatographic analysis of nitrous oxide by using Angeli's Salt as a positive compound in the experiment.

[2] = Release of nitric oxide in vitro (Griess reagent, nitrite); conditions: for Amount of Released No: 10^−4 mol/L tested substance, phosphate buffer pH 7.4, cysteine 5 mmol/L, 37° C., 1 h, as nitrite
Description: Experiment 1. Experimental Study on the Tested Compounds for Releasing Nitric Oxide in vitro
Experimental Procedure: • (1) Preparation of Griess Reagent: 4 g of aminobenzenesulfonamide, 0.2 g of N-naphthyl ethylene diamine hydrochloride, and 10 mL of 85% phosphoric acid solution were taken to form a solution, which is diluted to 100 mL with distilled water. • (2) Plotting of the standard curve: a serie of standard solution of 0.01, 0.03, 0.05, 0.07, 0.09, 0.2, 0.4 μg/mL of nitrite nitrogen was prepared, 10 mL of each was taken to sufficiently mix with 2.5 mL of Griess reagent, standing at room temperature for 10 min, and its absorbance value at the wavelength of 540 nm was measured. The standard curve was plotted based on the resulting data. • (3) Measuring the amount of the released NO of the tested drug: all of the tested substances were dissolved in dimethylsulfoxide (1 mL) firstly. Then phosphate buffer (pH 7.4) was slowly added dropwise, and shaken. The drug solution was diluted to 50 mL, allowing the buffer solution to contain excess cysteine (5 mmol/L), and the final concentration of the tested substances being 10^−4 mol/L; the solution was incubated at 37° C. 2 mL of the reaction solution was taken to mix with 500 μl of Griess reagent at 1 h respectively, standing at room temperature for 10 min. The absorbance value of the mixture at 540 nm was measured. Isosorbide mononitrate was used as a positive control, and H130 was used as a negative control. The amount of the released NO was represented by the amount of its oxidation product, nitrite (NO2^−).

[3] = Plasma stability in vitro, mouse plasma; conditions: CD-1 mice plasma, 2 μM, 37° C., in % (unit assumed)
Description: (§1) Experimental method: The tested compounds (2 μM) were added into mouse or human plasma, and incubated at 37° C. Samples were taken at 0, 10, 30, 60 and 120 min respectively. The reaction was stopped by adding a stop agent. The mixture was sufficient shaken, and centrifuged at 4000 rpm for 10 min at 4° C. The supernatant was taken. The concentrations of the tested compounds and their metabolite (H130) in the supernatant were measured by LC-MS/MS.

[4] = Plasma stability in vitro, human plasma; conditions: for Content of Tested Substance (n = 2): human plasma, 2 μM, 37° C., in % (unit assumed); for stability in human plasma: within 2 h
Description: as §1

## 2-(N-((2-(4-(5,7-dimethoxy-4-oxo-3,4-dihydro-quinazolin-2-yl)-2,6-dimethyl-phenoxy]-ethoxy) carbonyl)oxy)sulfamoyl)-1-methyl-1H-pyridine 1-2-onium salt [Compound H122]
[1]
  Molar Quantities of N2O/Sample: 18.3%

## 3-(nitroxy)-2,2-di(nitroxymethyl) propyl 4-(2-[4-(5,7-dimethoxy-4-oxo-3,4-dihydro-quinazolin-2-yl)-2,6-dimethyl-phenoxy] butyl)-4-oxo-2-acetamino-butyrate [Compound H124]
[2]
  Amount of Released No: 2.89 µM

## [Na+].[Na+].[O-][N+]([O-])=NO [Angeli's Salt, reference compound]
[1]
  Molar Quantities of N2O/Sample: 62.4%

## COc1cc(OC)c2c(=O)[nH]c(-c3cc(C)c(OCCOC(=O)c4cccc(CO[N+](=O)[O-])c4)c(C)c3)nc2c1 [Compound H102, 2-[4-(5,7-dimethoxy-4-oxo-3,4-dihydro-quinazolin-2-yl)-2,6-dimethyl-phenoxy]-ethyl 3-nitroxymethyl-benzoate]
[2]
  time after which NO is produced: ≥ 2 h
  Amount of Released No: -0.55 µM
[2]; within 1 h
  NO release detected within 1 h: does not produce NO within 1 h
[3]; 0 min
  Content of Tested Substance (n = 2): 100.0
[3]; 10 min
  Content of Tested Substance (n = 2): 10.8
[3]; 30 min
  Content of Tested Substance (n = 2): 1.3
[3]; 60 min
  Content of Tested Substance (n = 2): 3.1
[3]; 120 min
  Content of Tested Substance (n = 2): 1.8
[4]; 0 min
  Content of Tested Substance (n = 2): 100.0
[4]; 10 min
  Content of Tested Substance (n = 2): 101.5
[4]; 30 min
  Content of Tested Substance (n = 2): 98.4
[4]; 60 min
  Content of Tested Substance (n = 2): 95.0
[4]; 120 min
  Content of Tested Substance (n = 2): 84.5
[4]
  stability in human plasma: good stability

## COc1cc(OC)c2c(=O)[nH]c(-c3cc(C)c(OCCOC(=O)ONS(=O)(=O)c4ccc(C)s4)c(C)c3)nc2c1 [Compound H103, N-((2-(4-(5,7-dimethoxy-4-oxo-3,4-dihydroquinazolin-2-yl)-2,6-dimethylphenoxy)ethoxy)carbonyloxy)-5-methylthiophene-2-sulfonamide]
[1]
  Molar Quantities of N2O/Sample: 19.7%
[3]; 0 min
  Content of Tested Substance (n = 2): 100.0
[3]; 10 min
  Content of Tested Substance (n = 2): 0.0
[3]; 30 min
  Content of Tested Substance (n = 2): 0.0
[3]; 60 min
  Content of Tested Substance (n = 2): 0.0
[3]; 120 min
  Content of Tested Substance (n = 2): 0.0
[4]; 0 min
  Content of Tested Substance (n = 2): 100.0
[4]; 10 min
  Content of Tested Substance (n = 2): 97.3
[4]; 30 min
  Content of Tested Substance (n = 2): 89.6
[4]; 60 min
  Content of Tested Substance (n = 2): 83.3
[4]; 120 min
  Content of Tested Substance (n = 2): 86.9
[4]
  stability in human plasma: good stability

## COc1cc(OC)c2c(=O)[nH]c(-c3cc(C)c(OCCOC(=O)C(O)CC(=O)OCc4c(-c5ccccc5)no[n+]4[O-])c(C)c3)nc2c1 (stereo not shown) [Compound H113, 2-[4-(5,7-dimethoxy-4-oxo-3,4-dihydro-quinazolin-2-yl)-2,6-dimethyl-phenoxy]-ethyl (2-oxo-4-phenyl-furazan-3-yl)-methyl 2-hydroxy succinate]
[2]
  Amount of Released No: 45.63 µM

## COc1cc(OC)c2c(=O)[nH]c(-c3cc(C)c(OCCOC(=O)/C=C/C(=O)ONS(=O)(=O)c4ccco4)c(C)c3)nc2c1 [Compound H115, 2-[4-(5,7-dimethoxy-4-oxo-3,4-dihydro-quinazolin-2-yl)-2,6-dimethyl-phenoxy]-ethyl (E)-4-((furan-2-sulfonylamino)oxy)-4-oxo-2-crotonate]
[1]
  Molar Quantities of N2O/Sample: 17.8%

## COc1cc(OC)c2c(=O)[nH]c(-c3cc(C)c(OCCOC(=O)CCC(=O)N4CCN(CCO[N+](=O)[O-])CC4)c(C)c3)nc2c1 [Compound H117, 2-[4-(5,7-dimethoxy-4-oxo-3,4-dihydro-quinazolin-2-yl)-2,6-dimethyl-phenoxy]-ethyl 4-[4-(2-(nitroxy)ethyl)-piperazin-1-ly]-4-oxo-butyrate]
[2]
  Amount of Released No: 1.36 µM

## COc1cc(OC)c2c(=O)[nH]c(-c3cc(C)c(OCCOC(=O)NC4COC5C(O[N+](=O)[O-])COC45)c(C)c3)nc2c1 (stereo not shown) [Compound H120, 2-[4-(5,7-dimethoxy-4-oxo-3,4-dihydro-quinazolin-2-yl)-2,6-dimethyl-phenoxy]-ethyl (6-nitroxy-hexahydrofuro[3,2-b]furan-3-yl)-carbamate]
[2]
  Amount of Released No: 1.32 µM

## COc1cc(OC)c2c(=O)[nH]c(-c3cc(C)c(OCCOC(=O)CCC(=O)ONS(=O)(=O)c4ccc(Cl)s4)c(C)c3)nc2c1 [Compound H121, 2-[4-(5,7-dimethoxy-4-oxo-3,4-dihydro-quinazolin-2-yl)-2,6-dimethyl-phenoxy]-ethyl 4-(((5-chlorothiophene)-2-sulfonylamino)oxy)-4-oxo-butyrate]
[1]
  Molar Quantities of N2O/Sample: 24.6%
